The record followed here is US10844017B2, “Biaryl compound, preparation method and use thereof” (FUDAN UNIVERSITY, priority 2017, dated 2020).

SMILES strings stand for the structures.

The target in this assay is T1, RORγ receptor (B-RORγ LBD / Bioin-SRC1) (Homo sapiens, UniProt P51449).
T1 construct: 40 nM B-RORγ LBD solution
T1 sequence (P51449 269-508 limits assumed): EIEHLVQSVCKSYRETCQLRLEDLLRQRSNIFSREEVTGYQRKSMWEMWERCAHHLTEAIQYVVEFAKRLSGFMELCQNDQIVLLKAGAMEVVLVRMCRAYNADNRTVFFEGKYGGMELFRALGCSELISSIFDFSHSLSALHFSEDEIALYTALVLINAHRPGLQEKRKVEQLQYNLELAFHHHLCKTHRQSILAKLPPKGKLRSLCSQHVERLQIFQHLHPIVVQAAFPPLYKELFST
T1 sequence (Q15788 676-700 partner limits assumed): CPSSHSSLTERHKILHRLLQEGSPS
Put plainly: Determination of agonistic activities on RORγ receptors in vitro (dual FRET). It counts as biochemical. The following applies: average of at least two independent experiments. The procedure: Determination of Agonistic Activities of Compounds on RORγ Receptors In Vitro The agonistic activities of compounds described herein on RORγ receptor were determined by dual fluorescence resonance energy transfer (dual FRET) experiments. The agonistic activity was expressed by half maximum effect concentration (EC50).
1) Preparation of RORγ Assay Buffer
100 mL of buffer solution was well mixed with […] DTT for use.
2) Preparation of Solutions of Compounds
3) Preparation of protein mixtures a) 40 nM B-RORγ LBD solution was mixed well with 20 nM SA-APC solution and incubated for 15 minutes at room temperature. Then the resulting mixture was further mixed well with 400 nM Biotin and incubated for another 10 minutes at room temperature. […]
b) 40 nM Bioin-SRC1 solution was mixed well with 10 nM SA-eu solution and was incubated for 15 minutes at room temperature. Then the resulting mixture was further mixed well with 200 nM Biotin and was incubated for another 10 minutes at room temperature. […]
d) A mixture (25 μL) of B-RORγ LBD/SA-APC and Bioin-SRC1/SA-eu together with a test compound was added to one of the wells of a 384-well plate, and then the plate was centrifuged for one minute at 1000 rpm, and incubated at room temperature for one hour. The data were read on an Envision microplate detector and EC50 values were calculated.
What is called EC50 is the concentration needed to bring the measured effect to its halfway point. Take `CC(C)Cc1ccc(-c2c(Cl)cc(NC(=O)Cc3ccccc3)cc2Cl)cc1C#N` [Example 7, N-(2,6-Dichloro-3′-cyano-4′-isobutyl-[1,1′-biphenyl]-4-yl)-2-phenylacetamide]: the EC50 was 10 to 50 nM.
The result for `CCC(=O)Nc1cc(Cl)c(-c2ccc(CC(C)C)c(C#N)c2)c(Cl)c1` [Example 1, N-(2,6-Dichloro-3′-cyano-4′-isobutyl-[1,1′-biphenyl]-4-yl)propionamide] reads 10 to 50 nM; that for `CCS(=O)(=O)c1ccc(CC(=O)Nc2cc(Cl)c(-c3ccc(C=C4CCC4)c(C#N)c3)c(Cl)c2)cc1` [Example 44, N-(2,6-Dichloro-3′-cyano-4′-(cyclobutylidenemethyl)-[1,1′-biphenyl]-4-yl)-2-(4-(ethylsulfonyl)phenyl)acetamide], 10 to 50 nM; that for `CC(C)Cc1ccc(-c2c(Cl)cc(NC(=O)NCc3ccc(S(C)(=O)=O)cn3)cc2Cl)cc1C#N` [Example 56, 1-(2,6-Dichloro-3′-cyano-4′-isobutyl-[1,1′-biphenyl]-4-yl)-3-((5-(methylsulfonyl)pyridin-2-yl)methyl)urea], 10 to 50 nM.
The result for `CC(C)Cc1ccc(-c2c(Cl)cc(NC(=O)Cc3ccc(P(C)(C)=O)cc3)cc2Cl)cc1C#N` [Example 23, N-(2,6-Dichloro-3′-cyano-4′-isobutyl-[1,1′-biphenyl]-4-yl)-2-(4-(dimethylphosphoryl)phenyl)acetamide] reads 10 to 50 nM.
The result for `CCS(=O)(=O)c1ccc(CC(=O)Nc2ccc(-c3ccc(CC(C)C)cc3OC(F)(F)F)c(Cl)c2)cc1` [Example 30, N-(2-Chloro-4′-isobutyl-2′-(trifluoromethoxy)-[1,1′-biphenyl]-4-yl)-2-(4-(ethylsulfonyl)phenyl)acetamide] reads 10 to 50 nM; that for `CNS(=O)(=O)c1ccc(CC(=O)Nc2cc(Cl)c(-c3ccc(CC(C)C)c(C#N)c3)c(Cl)c2)cc1` [Example 22, N-(2,6-Dichloro-3′-cyano-4′-isobutyl-[1,1′-biphenyl]-4-yl)-2-(4-(N-methylsulfamoyl)phenyl)acetamide], 10 to 50 nM.
With `CC(C)Cc1ccc(-c2c(Cl)cc(NC(=O)Cc3cccc(C#N)c3)cc2Cl)cc1C#N` [Example 12, 2-(3-cyanophenyl)-N-(2,6-dichloro-3′-cyano-4′-isobutyl-[1,1′-biphenyl]-4-yl)acetamide], the EC50 is 10 to 50 nM.
The result for `CCS(=O)(=O)c1ccc(CC(=O)Nc2ccc(-c3ccc(CC(C)C)c(C#N)c3)c(Cl)c2)cc1` [Example 31, N-(2-Chloro-3′-cyano-4′-isobutyl-[1,1′-biphenyl]-4-yl)-2-(4-(ethylsulfonyl)phenyl)acetamide] reads less than 10 nM.
The molecule `CC(C)Cc1ccc(-c2c(Cl)cc(NCCc3ccc(S(C)(=O)=O)cc3)cc2Cl)cc1C#N` [Example 61, 2′,6′-Dichloro-4-isobutyl-4′-((4-(methylsulfonyl)phenethyl)amino)-[1,1′-biphenyl]-3-carbonitrile] had an EC50 of 10 to 50 nM.
The result for `CC(C)Cc1ccc(-c2c(Cl)cc(NC(=O)Cc3cccc(S(C)(=O)=O)c3)cc2Cl)cc1C#N` [Example 18, N-(2,6-Dichloro-3′-cyano-4′-isobutyl-[1,1′-biphenyl]-4-yl)-2-(3-(methylsulfonyl)phenyl)acetamide] reads 10 to 50 nM; that for `CN(C)Cc1ccc(-c2c(Cl)cc(C(=O)NCc3ccc(S(C)(=O)=O)cc3)cc2Cl)cc1C#N` [Example 52, 2,6-Dichloro-3′-cyano-4′-((dimethylamino)methyl)-N-(4-(methylsulfonyl)benzyl)-[1,1′-biphenyl]-4-carboxamide], 500 to 1000 nM; that for `CC(C)Cc1ccc(-c2c(Cl)cc(NC(=O)Cc3ccc(=O)[nH]c3)cc2Cl)cc1C#N` [Example 8, N-(2,6-Dichloro-3′-cyano-4′-isobutyl-[1,1′-biphenyl]-4-yl)-2-(6-oxo-1,6-dihydropyridin-3-yl)acetamide], 10 to 50 nM.
For `CC(C)Cc1ccc(-c2c(Cl)cc(NC(=O)Cc3cccnc3)cc2Cl)cc1C#N` [Example 14, N-(2,6-Dichloro-3′-cyano-4′-isobutyl-[1,1′-biphenyl]-4-yl)-2-(pyridin-3-yl)acetamide] the value was 10 to 50 nM.
The result for `CCS(=O)(=O)c1ccc(CC(=O)Nc2cc(Cl)c(-c3ccc(CC(C)C)cc3C#N)c(Cl)c2)cc1` [Example 28, N-(2,6-dichloro-2′-cyano-4′-isobutyl-[1,1′-biphenyl]-4-yl)-2-(4-(ethylsulfonyl)phenyl)acetamide] reads 10 to 50 nM.
`CC(C)Cc1ccc(-c2c(Cl)cc(NC(=O)NCc3ccc(CC(=O)O)cc3)cc2Cl)cc1C#N` [Example 57, 2-(4-((3-(2,6-Dichloro-3′-cyano-4′-isobutyl-[1,1′-biphenyl]-4-yl)ureido)methyl)phenyl)acetic acid]: the EC50 lay within 10 to 50 nM.
For `CC(C)Cc1ccc(-c2c(Cl)cc(NC(=O)c3ccccc3)cc2Cl)cc1C#N` [Example 3, N-(2,6-Dichloro-3′-cyano-4′-isobutyl-[1,1′-biphenyl]-4-yl)benzamide] the value was 50 to 100 nM; for `CC(C)Cc1ccc(-c2c(Cl)cc(C(=O)NCc3ccc(S(C)(=O)=O)cn3)cc2Cl)cc1C#N` [Example 50, 2,6-Dichloro-3′-cyano-4′-isobutyl-N-((5-(methylsulfonyl)pyridin-2-yl)methyl)-[1,1′-biphenyl]-4-carboxamide], 50 to 100 nM.
For `CN(C)Cc1ccc(-c2c(Cl)cc(NC(=O)NCc3ccc(S(C)(=O)=O)cc3)cc2Cl)cc1C#N` [Example 59, 1-(2,6-Dichloro-3′-cyano-4′-((dimethylamino)methyl)-[1,1′-biphenyl]-4-yl)-3-(4-(methylsulfonyl)benzyl)urea] the value was 10 to 50 nM; for `CCS(=O)(=O)c1ccc(CC(=O)Nc2ccc(-c3ccc(CC(C)C)cc3C(F)(F)F)c(Cl)c2)cc1` [Example 29, N-(2-chloro-4′-isobutyl-2′-(trifluoromethyl)-[1,1′-biphenyl]-4-yl)-2-(4-(ethylsulfonyl)phenyl)acetamide], 10 to 50 nM.
The result for `CC(C)Cc1ccc(-c2c(Cl)cc(NC(=O)Cc3ccc(C#N)cc3)cc2Cl)cc1C#N` [Example 10, 2-(4-Cyanophenyl)-N-(2,6-dichloro-3′-cyano-4′-isobutyl-[1,1′-biphenyl]-4-yl)acetamide] reads 10 to 50 nM; that for `CC(C)CC(=O)Nc1cc(Cl)c(-c2ccc(CC(C)C)c(C#N)c2)c(Cl)c1` [Example 4, N-(2,6-dichloro-3′-cyano-4′-isobutyl-[1,1′-biphenyl]-4-yl)-3-methylbutanamide], 10 to 50 nM; that for `CC(C)Cc1ccc(-c2c(Cl)cc(NC(=O)NCc3ccc(S(C)(=O)=O)cc3)cc2Cl)cc1C#N` [Example 54, 1-(2,6-Dichloro-3′-cyano-4′-isobutyl-[1,1′-biphenyl]-4-yl)-3-(4-(methylsulfonyl)benzyl)urea], 10 to 50 nM.
On to `CC(C)Cc1ccc(-c2c(Cl)cc(NC(=O)Cc3ccncc3)cc2Cl)cc1C#N` [Example 15, N-(2,6-Dichloro-3′-cyano-4′-isobutyl-[1,1′-biphenyl]-4-yl)-2-(pyridin-4-yl)acetamide], for which the EC50 lay within 10 to 50 nM.
For `CN(C)Cc1ccc(-c2c(Cl)cc(NCCc3ccc(S(C)(=O)=O)cc3)cc2Cl)cc1C#N` [Example 63, 2′,6′-Dichloro-4-((dimethylamino)methyl)-4′-((4-(methylsulfonyl)phenethyl)amino)-[1,1′-biphenyl]-3-carbonitrile] the value was less than 10 nM.
